Assay results as given in patent US7629130B2 (priority 2005, dated 2009).
Like-named read-outs stand apart in the source and are kept apart here.

Assays:
[1] = system: L. pneumophila
[2] = system: Dictyostelium; format: cell-based, Dictyostelium discoideum
[3] = system: Dictyostelium
[4] = system: Legionella-containing vacuoles in calnexin-GFP-labeled Dictyostelium; format: cell-based, Dictyostelium discoideum
[5] = system: Legionella-containing vacuoles in Dictyostelium; format: cell-based, Dictyostelium discoideum; conditions: 20 μM LY; 1 h infection; p<10^−9
[6] = system: L. pneumophila within Dictyostelium; format: cell-based, Legionella pneumophila; conditions: within 6-8 days; 10 μM LY (FIG. 2C); MOI 1
[7] = latrunculin B 1-50 μM, cytochalasin A 1-50 μM, cytochalasin D up to 50 μM, 1 h prior infection

## COC[C@H]1OC(=O)c2coc3c2[C@@]1(C)C1=C(C3=O)[C@@H]2CCC(=O)[C@@]2(C)C[C@H]1OC(C)=O [wortmannin]
[1]
  viability of L. pneumophila (CFU): did not affect viability
[2]
  change in phagocytosis of wild-type L. pneumophila: −19%
[3]
  viability of Dictyostelium (PFU): did not affect viability
  viability of Dictyostelium Ax3 in MB medium: as viable as untreated

## C=C1[C@@H](C)[C@H]2[C@H](Cc3ccccc3)NC(=O)[C@]23OC(=O)/C=C/C(=O)CCC[C@@H](C)C/C=C/[C@H]3[C@@H]1O [cytochalasin A]
[2]
  Icm/Dot-dependent phagocytosis: blocked
[2]; [7]
  inhibition of phagocytosis (uptake) of L. pneumophila: blocked phagocytosis in a dose-dependent manner

## C/C1=C/C(=O)O[C@@H]2C[C@@H](CC[C@H](C)/C=C\CC1)O[C@@](O)([C@@H]1CSC(=O)N1)C2 [latrunculin B]
[2]
  Icm/Dot-dependent phagocytosis: blocked
  inhibition of phagocytosis (uptake) of L. pneumophila: blocked phagocytosis in a dose-dependent manner
  phagocytosis (FIG. 1): blocked

## O=c1cc(N2CCOCC2)oc2c(-c3ccccc3)cccc12 [LY294002]
[1]; wortmannin 0.1-10 μM, LY294002 5-25 μM, HL5 medium
  viability of L. pneumophila (CFU): did not affect viability
[2]; wild-type Dictyostelium treated with PI3K inhibitor (FIG. 2A: 5 μM wortmannin)
  change in phagocytosis of wild-type L. pneumophila: −33%
[3]
  viability of Dictyostelium (PFU): did not affect viability
  viability of Dictyostelium Ax3 in MB medium: as viable as untreated
  viability of Dictyostelium at later time points (PFU on K. pneumoniae lawns): reduced viability
[4]; 15 min post infection, 20 μM LY-treated wild-type Dictyostelium (untreated 25%)
  portion of spacious LCVs: less than 5%
[4]; within 2 h, 20 μM LY-treated wild-type Dictyostelium (untreated 40%)
  portion of spacious LCVs: 20%
[5]
  factor more SidC localized to LCV membranes compared to untreated wild-type Dictyostelium: ~1.5
[6]
  factor more wild-type L. pneumophila released compared to wild-type Dictyostelium: ~100

## C=C1[C@@H](C)[C@H]2[C@H](Cc3ccccc3)NC(=O)[C@]23[C@H](OC(C)=O)/C=C/[C@@](C)(O)C(=O)[C@@H](C)C/C=C/[C@H]3[C@@H]1O [cytochalasin D]
[2]; [7]
  inhibition of phagocytosis (uptake) of L. pneumophila: did not prevent uptake
